Measurements from patent USRE42461E1, “Hydroxy-substituted azetidinone compounds useful as hypocholesterolemic agents” (Schering Corporation, priority 1994, dated 2011).
Read-outs that look alike come from different tables or passages of the source.

System: Hyperlipidemic Hamster
Test: In Vivo Assay of Hypolipidemic Agents Using the Hyperlipidemic Hamster
Conditions: 0.5% cholesterol diet 7 days, oral gavage once daily in corn oil, percent change versus control, negative = lowering; for change in vivo at 50 mg/kg / change in vivo at 8 mg/kg / change in vivo at 7 mg/kg / change in vivo at 3 mg/kg / change in vivo at 1 mg/kg / change in vivo at 10 mg/kg / change in vivo at 5 mg/kg: Mesocricetus auratus, 168 h
Procedure: The in vivo activity of the compounds of formula I can be determined by the following procedure: […]
In Vivo Assay of Hypoligidemic Hypolipidemic Agents Using the Hyperlipidemic Hamster
Hamsters are separated into groups of six and given a controlled cholesterol diet (Purina Chow #5001 containing 0.5% cholesterol) for seven days. Diet consumption is monitored to determine dietary cholesterol exposure in the face of test compounds. The animals are dosed with the test compound once daily beginning with the initiation of diet. Dosing is by oral gavage of 0.2 mL of corn oil alone (control group) or solution (or suspension) of test compound in corn oil. All animals moribund or in poor physical condition are euthanized. After seven days, the animals are anesthetized by intramuscular (IM) injection of ketamine and sacrificed by decapitation. Blood is collected into vacutainer tubes containing EDTA for plasma lipid analysis and the liver excised for tissue lipid analysis. Lipid analysis is conducted as per published procedures (Schnitzer-Polokoff, R., et al. Comp. Biochem. Physiol., 99A, 4 (1991), p. 665-670) and data is reported as percent reduction of lipid versus control.
Using the test procedures described above, the following in vivo data were obtained for the exemplified compounds. Data is reported as percent change (i.e., percent reduction in cholesterol esters) versus control, therefore, negative numbers indicate a positive lipid-lowering effect.

[1] = liver cholesterol esters, read-out: % Reduction Cholest. Esters
[2] = po, read-out: % Reduction Serum Cholest.
[3] = liver cholesterol esters, dose 10 mg/kg
[4] = liver cholesterol esters, dose 1 mg/kg, read-out: % Reduction Cholest. Esters
[5] = po, dose 1 mg/kg, read-out: % Reduction Serum Cholest.
[6] = liver cholesterol esters, dose 1 mg/kg
[7] = liver cholesterol esters, dose 10 mg/kg, read-out: % Reduction Cholest. Esters
[8] = po, dose 10 mg/kg, read-out: % Reduction Serum Cholest.

## COc1ccc([C@@H]2C(C[C@@H](O)c3ccccc3)C(=O)N2c2ccccc2)cc1 (stereo partly shown) [Example 1B]
[1]
  change in vivo at 50 mg/kg: -39%
[2]
  change in vivo at 50 mg/kg: -15%

## COc1ccc([C@@H]2C(CC[C@H](O)c3ccccc3)C(=O)N2c2ccc(OC)cc2)cc1 (stereo partly shown) [Example 4B]
[1]
  change in vivo at 8 mg/kg: -89%
[2]
  change in vivo at 8 mg/kg: -37%

## COc1ccc([C@H]2[C@H](CC[C@H](O)c3ccccc3)C(=O)N2c2ccc(OC)cc2)cc1 [Example 4D]
[1]
  change in vivo at 7 mg/kg: 0%
[2]
  change in vivo at 7 mg/kg: 9%

## COc1ccc([C@@H]2C([C@@H](O)c3cccc4ccccc34)C(=O)N2c2ccccc2)cc1 (stereo partly shown) [Example 3M]
Dose 10 mg/kg
  % Reduction Serum Cholest.: 0%
[3]
  % Reduction Cholest. Esters: −22%

## O=C1C(CC[C@@H](O)c2ccc(F)cc2)[C@@H](c2ccc(O)cc2)N1c1ccc(F)cc1 (stereo partly shown) [Example 6B]
[1]
  change in vivo at 3 mg/kg: -92%
[2]
  change in vivo at 3 mg/kg: -40%

## O=C1C(CC[C@H](O)c2ccc(F)cc2)[C@@H](c2ccc(O)cc2)N1c1ccc(F)cc1 (stereo partly shown) [Example 6A]
[4]
  change in vivo at 1 mg/kg: -95%
[5]
  change in vivo at 1 mg/kg: -59%

## CC(=O)Oc1ccc([C@@H]2[C@@H](CC[C@@H](OC(C)=O)c3ccc(F)cc3)C(=O)N2c2ccc(F)cc2)cc1 [Example 8C, 4(S)-(4-acetyloxyphenyl)-3(R)-(3(R)-acetyloxiy-3-(4-fluorophenyl)propyl)-1-(4-fluorophenyl)-2-azetidinone]
Dose 1 mg/kg
  % Reduction Serum Cholest.: −14%
[6]
  % Reduction Cholest. Esters: −37%

## COc1ccc([C@@H]2[C@H](C(O)CCc3ccccc3)C(=O)N2c2ccccc2)cc1 (stereo partly shown) [Example 3C]
[1]
  change in vivo at 50 mg/kg: -92%
[2]
  change in vivo at 50 mg/kg: -60%

## COc1ccc([C@@H]2[C@@H](CC[C@@H](OC(C)=O)c3ccccc3)C(=O)N2c2ccc(OC)cc2)cc1 [Example 8A, 1,4(S)-bis(4-methoxyphenyl)-3(R)-(3(R)-acetoxy-3-phenylpropyl)-2-azetidinone]
[1]
  change in vivo at 3 mg/kg: -44%
[2]
  change in vivo at 3 mg/kg: 0%

## COCOc1ccc(C(O)CCC2C(=O)N(c3ccc(OC)cc3)[C@@H]2c2ccc(OC)cc2)cc1 (stereo partly shown) [Example 5]
[7]
  change in vivo at 10 mg/kg: -64%
[8]
  change in vivo at 10 mg/kg: 0%

## COc1ccc(N2C(=O)C(CC[C@H](O)c3ccccc3)[C@H]2c2ccc(OC(C)=O)cc2)cc1 (stereo partly shown) [Example 6D]
[7]
  change in vivo at 10 mg/kg: -95%
[8]
  change in vivo at 10 mg/kg: -46%

## COc1ccc([C@@H]2C([C@@H](O)c3cccc4ccccc34)C(=O)N2c2ccccc2)cc1 (stereo partly shown) [Example 3L]
Dose 10 mg/kg
  % Reduction Serum Cholest.: −15%
[3]
  % Reduction Cholest. Esters: −21%

## COc1ccc(N2C(=O)C(CC[C@@H](O)c3ccccc3)[C@H]2c2ccc(O)cc2)cc1 (stereo partly shown) [Example 4E]
[1]
  change in vivo at 3 mg/kg: -46%
[2]
  change in vivo at 3 mg/kg: 0%

## COc1ccc([C@H]2C(C[C@@H](OC(C)=O)c3ccccc3)C(=O)N2c2ccccc2)cc1 (stereo partly shown) [Example 2]
[1]
  change in vivo at 50 mg/kg: 0%
[2]
  change in vivo at 50 mg/kg: 0%

## COc1ccc([C@@H]2[C@H]([C@H](O)CCc3ccccc3)C(=O)N2c2ccccc2)cc1 [Example 3H]
[7]
  change in vivo at 10 mg/kg: -86%
[8]
  change in vivo at 10 mg/kg: -41%

## COc1ccc([C@@H]2C([C@@H](O)CCc3ccccc3)C(=O)N2c2ccccc2)cc1 (stereo partly shown) [Example 3A]
[1]
  change in vivo at 50 mg/kg: -69%
[2]
  change in vivo at 50 mg/kg: -31%

## O=C1[C@@H]([C@H](O)CCc2ccccc2)[C@@H](c2ccc(O)cc2)N1c1ccc(F)cc1 [Example 10]
[1]
  change in vivo at 3 mg/kg: -77%
[2]
  change in vivo at 3 mg/kg: -26%

## COc1ccc([C@H]2C(C[C@@H](O)c3ccccc3)C(=O)N2c2ccccc2)cc1 (stereo partly shown) [Example 1A]
[1]
  change in vivo at 50 mg/kg: 0%
[2]
  change in vivo at 50 mg/kg: -2.3%

## COc1ccc(N2C(=O)C(CC[C@H](O)c3ccccc3)[C@H]2c2ccc(O)cc2)cc1 (stereo partly shown) [Example 4F]
[1]
  change in vivo at 3 mg/kg: -95%
[2]
  change in vivo at 3 mg/kg: -29%

## CC(=O)Oc1ccc([C@@H]2[C@@H](CC[C@H](OC(C)=O)c3ccc(F)cc3)C(=O)N2c2ccc(F)cc2)cc1 [Example 8D, 4(S)-(4-acetyloxyphenyl)-3(R)-(3(S)-acetyloxy-3-(4-fluorophenyl)propyl)-1-(4-fluorophenyl)-2-azetidinone]
[4]
  change in vivo at 1 mg/kg: -98%
[5]
  change in vivo at 1 mg/kg: -49%

## COc1ccc(N2C(=O)C(CC[C@@H](O)c3ccccc3)[C@H]2c2ccc(OC(C)=O)cc2)cc1 (stereo partly shown) [Example 6C]
[1]
  change in vivo at 3 mg/kg: -48%
[2]
  change in vivo at 3 mg/kg: 0%

## CC(=O)Oc1ccc([C@@H]2C(CC[C@H](OC(C)=O)c3ccc(Cl)cc3)C(=O)N2c2ccc(Cl)cc2)cc1 (stereo partly shown) [Example 8E]
[1]
  change in vivo at 3 mg/kg: -66%
[2]
  change in vivo at 3 mg/kg: -22%

## COc1ccc([C@@H]2C(CC[C@@H](O)c3ccccc3)C(=O)N2c2ccc(OC)cc2)cc1 (stereo partly shown) [Example 4A]
[1]
  change in vivo at 5 mg/kg: -54%
[2]
  change in vivo at 5 mg/kg: 0%

## COc1ccc([C@@H]2[C@@H](CC[C@H](OC(C)=O)c3ccccc3)C(=O)N2c2ccc(OC)cc2)cc1 [Example 8B, 1,4(S)-bis(4-methoxyphenyl)-3(R)-(3(S)-acetoxy-3-phenylpropyl)-2-azetidinone]
[1]
  change in vivo at 3 mg/kg: -95%
[2]
  change in vivo at 3 mg/kg: -50%

## O=C1[C@H](CC[C@H](O)c2ccc(F)cc2)[C@@H](c2ccc(OCc3ccccc3)cc2)N1c1ccc(F)cc1 [Example 6A-1]
Dose 1 mg/kg
  % Reduction Serum Cholest.: −43%
[6]
  % Reduction Cholest. Esters: −93%

## CC(=O)Oc1ccc([C@@H]2C(CC[C@@H](OC(C)=O)c3ccc(Cl)cc3)C(=O)N2c2ccc(Cl)cc2)cc1 (stereo partly shown) [Example 8F]
[4]
  change in vivo at 1 mg/kg: -94%
[5]
  change in vivo at 1 mg/kg: -43%
